The text below walks through data of patent US10189788B2, “Substituted N,2-diarylquinoline-4-carboxamides and the use thereof as anti-inflammatory agents” (BAYER PHARMA AKTIENGESELLSCHAFT, priority 2014, dated 2019).

For data set [1] the following is noted: eliminated renally; cited from earlier work.
Data set [2] concerns the target T1, Human FP Receptor (Homo sapiens (Human), UniProt P43088). Put plainly: In vitro test of inhibition of human FP receptor activity, variant B-1A (PGF2α-induced calcium flux in FP-expressing CHEM1 cells). It counts as cell-based. The note with it: calcium flux induced by 3 nM PGF2α, Fluo-8, some mean values from multiple determinations. The source says:
• BSA bovine serum albumin • CRTH2 chemoattractant receptor-homologous molecule expressed on T helper type 2 cells • DMEM Dulbecco's modified Eagle's medium • DMSO dimethyl sulfoxide • DP PGD2 receptor • EC50 half-maximum effective concentration • em. emission • EP PGE2 receptor • ex. excitation • FCS fetal calf serum • FP PGF2α receptor • HEPES 2-[4-(2-hydroxyethyl)piperazin-1-yl]ethanesulfonic acid • IC50 half-maximum inhibitory concentration • IP PGI2 receptor • MES 2-(N-morpholino)ethanesulfonic acid • Pen/Strep penicillin/streptomycin • PGD2 prostaglandin D2 • PGE2 prostaglandin E2 • PGF2α prostaglandin F2α • PGI2 prostaglandin […] • TC tissue culture • TP thromboxane A2 receptor • Tris tris(hydroxymethyl)aminomethane • v/v volume to volume ratio (of a solution) • w/w weight to weight ratio (of a solution) B-1.

For data set [3], the target named is T1, Human FP Receptor. Description: In vitro test of inhibition of human FP receptor activity, variant B-1B (PGF2α-induced calcium flux in recombinant FP-expressing CHO cells with GCaMP6). Type of data set: cell-based. The note with it: recombinant FP-expressing CHO cells with GCaMP6, calcium flux induced by 3 nM PGF2α, some mean values from multiple determinations. The source says: 470 nm/em. 525 nm in a fluorescence measuring instrument (FLIPR Tetra®, MolecularDevices) for 120 seconds.

The conditions of data set [4]: unstable molecule, rearranged enzymatically in lung, liver and kidney to 15-ketodihydro-PGF2α; cited from earlier work.

T1 sequence (P43088 whole entry): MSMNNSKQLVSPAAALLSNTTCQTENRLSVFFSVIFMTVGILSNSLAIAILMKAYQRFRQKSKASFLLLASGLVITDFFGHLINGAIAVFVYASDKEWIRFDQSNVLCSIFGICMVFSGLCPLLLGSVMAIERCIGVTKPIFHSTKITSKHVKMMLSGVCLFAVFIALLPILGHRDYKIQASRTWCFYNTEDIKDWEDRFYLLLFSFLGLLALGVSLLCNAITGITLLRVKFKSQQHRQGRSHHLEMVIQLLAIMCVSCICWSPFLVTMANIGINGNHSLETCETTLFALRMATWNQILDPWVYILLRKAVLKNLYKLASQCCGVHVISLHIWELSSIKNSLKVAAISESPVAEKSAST

Regarding Bleomycin, in data set [1], the half-life entry is given as “about 3 hours”. For the compound `Cc1c(-c2ccccc2)nc2ccc(Br)cc2c1C(=O)Nc1ccc(C(=O)O)cc1F` [Example 69, Potassium 4-{[(6-bromo-3-methyl-2-phenylquinolin-4-yl)carbonyl]amino}-3-fluorobenzoate], the IC50 worked out at 0.104 µM on Human FP Receptor [2] and 0.059 µM on Human FP Receptor [3]. For `Cc1c(-c2ccccc2)nc2ccc(Br)cc2c1C(=O)Nc1ccc(C(=O)O)cc1F` [Example 50, Sodium 4-{[(6-bromo-3-methyl-2-phenylquinolin-4-yl)carbonyl]amino}-3-fluorobenzoate] the same measures were 0.037 µM and 0.044 µM. On to Prostaglandin F2alpha [PGF2α], for which the t1/2 in data set [4] was under 1 min.
